These results are taken from paper PMC5045423, “X66, a novel N-terminal heat shock protein 90 inhibitor, exerts antitumor effects without induction of heat shock response” (Oncotarget, 2016).

The target in test [1] is T1, HSP90α (Homo sapiens, UniProt P07900). The experiment in a line: streptavidin pull-down of purified full-length HSP90α and NTD, competed by excess soluble X66. The class given is binding. Details: gene HSP90AA1; recombinant human full-length protein and its N-terminal fragment, but not the C-terminal fragment.
For test [2], the target named is T1, HSP90α. The experiment in a line: SPR (BIAcore […], immobilized full-length HSP90α); also competes with Biotin-X66 for the N-terminal domain in pull-down. Set-up: gene HSP90AA1; recombinant human full-length HSP90α. The class given is binding.

With `Cc1cc(C)n(-c2nc(NN=Cc3cn(C(=O)CCCC[C@@H]4SC[C@@H]5NC(=O)N[C@@H]54)c4ccccc34)nc(Nc3ccc(Br)cc3)n2)n1` [Biotin-X66], the “streptavidin pull-down of purified full-length HSP90α and NTD, competed by exces” value in test [1] is “Biotin-X66 was able to isolate the recombinant human full-length protein and its N-terminal fragment, but not the C-terminal fragment”.

In the case of `Cc1cc(C)n(-c2nc(NN=Cc3c[nH]c4ccccc34)nc(Nc3ccc(Br)cc3)n2)n1` [X66, 4-(2-((1H-indol-3-yl)methylene)hydrazinyl)-N-(4-bromophenyl)-6-(3,5-dimethyl-1H -pyrazol-1-yl)-1,3,5-triazin-2-amine], the equilibrium dissociation constant (Kd) in test [2] amounted to 5.3 µM.
